Read-outs that look alike come from different tables or passages of the source.
Experiments:
[1] = Serum noribogaine pharmacokinetics in patients, Phase IB study; type: in vivo, human; settings: for Vd/F / AUC(0-t) / Cmax / Tmax / AUC / half-life: human, serum, opioid-dependent patients, mean ± SD; for Vd/F: unit inferred; for AUC: read-out: AUC(0-¥)
Method: (§1) The efficacy of noribogaine in humans was evaluated in opioid-dependent participants in a randomized, placebo-controlled, double-blind trial. […] See U.S. application Ser. No. 14/214,157, filed Mar. 14, 2014 and Ser. No. 14/346,655, filed Mar. 21, 2014, which are incorporated herein by reference in their entireties.
(§2) Three cohorts of nine (9) subjects (6 administered noribogaine and 3 administered placebo in each cohort) were evaluated for tolerability, pharmacokinetics, and efficacy. Cohort 1 received a single dose of 60 mg noribogaine or placebo. Cohort 2 received a single dose of 120 mg noribogaine or placebo. Cohort 3 received a single dose of 180 mg noribogaine or placebo.

[2] = test system: opioid-dependent participants; test: Treatment emergent adverse events in opioid-dependent participants; type: in vivo, human; settings: opioid-dependent patients
Method: as §1, §2

CC[C@H]1CC2C[C@H]3c4[nH]c5ccc(O)cc5c4CCN(C2)C13 [Noribogaine]
dose dependence of maximum serum concentration (Cmax) ([1]; 60, 120, 180 mg cohorts): increased in a dose-dependent manner
Vd/F ([1]; Cohort 2 (120 mg)): 2110 ± 1640 L
Vd/F ([1]; Cohort 3 (180 mg)): 1030 ± 365 L
AUC(0-t) ([1]; Cohort 1 (60 mg)): 2020 ± 614 ng·h/mL
Cmax ([1]; Cohort 1 (60 mg)): 81.6 ± 23.8 ng/mL
Tmax ([1]; Cohort 1 (60 mg)): 3.59 ± 0.92 h
AUC ([1]; Cohort 1 (60 mg)): 2060 ± 609 ng·h/mL
AUC(0-t) ([1]; Cohort 2 (120 mg)): 3230 ± 1540 ng·h/mL
Cmax ([1]; Cohort 2 (120 mg)): 173 ± 30.7 ng/mL
Tmax ([1]; Cohort 2 (120 mg)): 2.99 ± 1.23 h
half-life ([1]; Cohort 2 (120 mg)): 30.4 ± 9.14 h
AUC ([1]; Cohort 2 (120 mg)): 3280 ± 1580 ng·h/mL
AUC(0-t) ([1]; Cohort 3 (180 mg)): 6520 ± 2910 ng·h/mL
Cmax ([1]; Cohort 3 (180 mg)): 268 ± 46.9 ng/mL
Tmax ([1]; Cohort 3 (180 mg)): 4.41 ± 1.8 h
half-life ([1]; Cohort 3 (180 mg)): 23.9 ± 5.54 h
AUC ([1]; Cohort 3 (180 mg)): 6890 ± 3490 ng·h/mL
Treatment emergent AEs: Catheter Site Infection ([2]; single 60 mg dose (N = 6)): 0
Treatment emergent AEs: Catheter Site Pain ([2]; single 60 mg dose (N = 6)): 0
Treatment emergent AEs: Catheter Site Related Reaction ([2]; single 60 mg dose (N = 6)): 0
Treatment emergent AEs: Cellulitis ([2]; single 60 mg dose (N = 6)): 0
Treatment emergent AEs: Diarrhoea ([2]; single 60 mg dose (N = 6)): 0
Treatment emergent AEs: Dry Mouth ([2]; single 60 mg dose (N = 6)): 0
Treatment emergent AEs: Ear and Labyrinth Disorders ([2]; single 60 mg dose (N = 6)): 0
Treatment emergent AEs: Epistaxis ([2]; single 60 mg dose (N = 6)): 0
Treatment emergent AEs: Euphoric Mood ([2]; single 60 mg dose (N = 6)): 0
Treatment emergent AEs: General Disorders and Administration Site Conditions ([2]; single 60 mg dose (N = 6)): 0
Treatment emergent AEs: Hyperaesthesia ([2]; single 60 mg dose (N = 6)): 0
Treatment emergent AEs: Infections and Infestations ([2]; single 60 mg dose (N = 6)): 0
Treatment emergent AEs: Limb Discomfort ([2]; single 60 mg dose (N = 6)): 0
Treatment emergent AEs: Malaise ([2]; single 60 mg dose (N = 6)): 0
Treatment emergent AEs: Nausea ([2]; single 60 mg dose (N = 6)): 0
Treatment emergent AEs: Oropharyngeal Pain ([2]; single 60 mg dose (N = 6)): 0
Treatment emergent AEs: Pseudoparalysis ([2]; single 60 mg dose (N = 6)): 0
Treatment emergent AEs: Respiratory, Thoracic and Mediestinal Disorders ([2]; single 60 mg dose (N = 6)): 0
Treatment emergent AEs: Rhinorrhoea ([2]; single 60 mg dose (N = 6)): 0
Treatment emergent AEs: Skin Discomfort ([2]; single 60 mg dose (N = 6)): 0
Treatment emergent AEs: Skin Irritation ([2]; single 60 mg dose (N = 6)): 0
Treatment emergent AEs: Skin and Subcutaneous Tissue Disorders ([2]; single 60 mg dose (N = 6)): 0
Treatment emergent AEs: Somnolence ([2]; single 60 mg dose (N = 6)): 0
Treatment emergent AEs: Tinnitus ([2]; single 60 mg dose (N = 6)): 0
Treatment emergent AEs: Tremor ([2]; single 60 mg dose (N = 6)): 0
Treatment emergent AEs: Urinary Tract Infection ([2]; single 60 mg dose (N = 6)): 0
Treatment emergent AEs: Vomiting ([2]; single 60 mg dose (N = 6)): 0
Treatment emergent AEs: Back pain ([2]; single 120 mg dose (N = 6)): 0
Treatment emergent AEs: Catheter Site Infection ([2]; single 120 mg dose (N = 6)): 0
Treatment emergent AEs: Catheter Site Related Reaction ([2]; single 120 mg dose (N = 6)): 0
Treatment emergent AEs: Depressed Mood ([2]; single 120 mg dose (N = 6)): 0
Treatment emergent AEs: Dry Eye ([2]; single 120 mg dose (N = 6)): 0
Treatment emergent AEs: Dyspepsia ([2]; single 120 mg dose (N = 6)): 0
Treatment emergent AEs: Euphoric Mood ([2]; single 120 mg dose (N = 6)): 0
Treatment emergent AEs: Limb Discomfort ([2]; single 120 mg dose (N = 6)): 0
Treatment emergent AEs: Malaise ([2]; single 120 mg dose (N = 6)): 0
Treatment emergent AEs: Musculoskeletal and Connective Tissue Disorders ([2]; single 120 mg dose (N = 6)): 0
Treatment emergent AEs: Psychiatric Disorders ([2]; single 120 mg dose (N = 6)): 0
Treatment emergent AEs: Somnolence ([2]; single 120 mg dose (N = 6)): 0
Treatment emergent AEs: Urinary Tract Infection ([2]; single 120 mg dose (N = 6)): 0
Treatment emergent AEs: Catheter Site Infection ([2]; single 180 mg dose (N = 6)): 0
Treatment emergent AEs: Catheter Site Pain ([2]; single 180 mg dose (N = 6)): 0
Treatment emergent AEs: Depressed Mood ([2]; single 180 mg dose (N = 6)): 0
Treatment emergent AEs: Diarrhoea ([2]; single 180 mg dose (N = 6)): 0
Treatment emergent AEs: Dry Eye ([2]; single 180 mg dose (N = 6)): 0
Treatment emergent AEs: Dyspepsia ([2]; single 180 mg dose (N = 6)): 0
Treatment emergent AEs: Ear and Labyrinth Disorders ([2]; single 180 mg dose (N = 6)): 0
Treatment emergent AEs: Epistaxis ([2]; single 180 mg dose (N = 6)): 0
Treatment emergent AEs: Euphoric Mood ([2]; single 180 mg dose (N = 6)): 0
Treatment emergent AEs: Hyperaesthesia ([2]; single 180 mg dose (N = 6)): 0
Treatment emergent AEs: Malaise ([2]; single 180 mg dose (N = 6)): 0
Treatment emergent AEs: Oropharyngeal Pain ([2]; single 180 mg dose (N = 6)): 0
Treatment emergent AEs: Pseudoparalysis ([2]; single 180 mg dose (N = 6)): 0
Treatment emergent AEs: Psychiatric Disorders ([2]; single 180 mg dose (N = 6)): 0
Treatment emergent AEs: Respiratory, Thoracic and Mediestinal Disorders ([2]; single 180 mg dose (N = 6)): 0
Treatment emergent AEs: Rhinorrhoea ([2]; single 180 mg dose (N = 6)): 0
Treatment emergent AEs: Skin Discomfort ([2]; single 180 mg dose (N = 6)): 0
Treatment emergent AEs: Skin Irritation ([2]; single 180 mg dose (N = 6)): 0
Treatment emergent AEs: Skin and Subcutaneous Tissue Disorders ([2]; single 180 mg dose (N = 6)): 0
Treatment emergent AEs: Somnolence ([2]; single 180 mg dose (N = 6)): 0
Treatment emergent AEs: Tinnitus ([2]; single 180 mg dose (N = 6)): 0
Treatment emergent AEs: Tremor ([2]; single 180 mg dose (N = 6)): 0
adverse effects observed ([2]; single 60, 120 or 180 mg dose): Few adverse effects
hallucinatory effects ([2]; single 60, 120 or 180 mg dose): no hallucinatory effects

Reference: US20150231147A1, “METHODS FOR ACUTE AND LONG-TERM TREATMENT OF DRUG ADDICTION” (DemeRx, Inc., priority 2014, published 2015)
